Assay results taken from publication PMC12040169 (PLOS Biology, 2025).

Test: in vitro
Details: human, hela cells, % viability

| Structure (SMILES) | viability at 28.5 h, 10 µM [%] | viability at 28.5 h, 10 µM (bulk resorufin, single well) [%] |
| --- | --- | --- |
| Cc1cc(N2CCCC2)c(F)cc1CN1CCC(CO)C1 (stereo not drawn) [CBK282916] | 93.6 |  |
| CS(=O)(=O)c1cccc(-c2nnc(NC(=O)c3ccccc3)o2)c1 [CBK287726] | 82.4 |  |
| Cc1ccc(NS(=O)(=O)c2cccc(C(=O)NS(=O)(=O)c3ccc(F)cc3F)c2)cc1 [CBK297776] | 70.5 |  |
| CC1=C[C@@H](CNC(=O)Nc2ccccc2)[C@H](C(C)C)C[C@H]1CC(=O)N1CCN(C)CC1 [CBK289048] | 121 |  |
| CC(Sc1nc2ccccc2c(=O)n1C1CC1)C(=O)N1CCOCC1 (stereo not drawn) [CBK306045] | 79.5 |  |
| c1ccc(CN2CCC[C@H]2c2nc(-c3ccc(-c4cncnc4)nc3)no2)cc1 [CBK288891] | 87.5 |  |
| c1ccc(OCCOc2nccnc2-c2ccsc2)cc1 [CBK106773] | 103 |  |
| Cc1nc2c(OCC3CCCCC3)cccn2c1N(C)CC1CC1 [CBK147279] | 97.2 |  |
| Cc1cnccc1-c1c[nH]nc1-c1cccc(CNS(=O)(=O)c2ccc(F)c(F)c2)c1 [CBK285627] | 96 |  |
| O=[N+]([O-])c1cccc(-c2ccc3c(c2)COC2(CCNCC2)O3)c1 [CBK060957] |  | 105 |
| Nc1nonc1-n1nnc(C(=O)N/N=C/c2ccc([N+](=O)[O-])cc2)c1-c1ccccc1 [CBK261992] | 86.4 |  |
| COCCNCCOc1c(Cl)cc(C)cc1Br [CBK265087G] | 113 |  |
| O=C1c2ccccc2C(=O)N1CCCN1CCN(CCCN2C(=O)c3ccccc3C2=O)CC1 [CBK260963] | 91.6 |  |
| O=C(NCCc1ccccc1)c1nc(-c2ccncc2)cs1 [CBK288604] | 70 |  |
| C=C(C)Cn1c(SCC(C)C)nnc1-c1ccccc1C(=O)NC(C)C [CBK200096] | 87.8 |  |
| COc1cccc2cc(C(=O)NCCCN3CCN(C)CC3)oc12 [CBK149788] | 101 |  |
| CCN(CCC(F)(F)F)C(=O)Cc1csc(NC(=O)c2ccoc2C)n1 [CBK305729] | 83.3 |  |
| CCOC(=O)C1CCCN(S(=O)(=O)c2sc3ccc(Cl)cc3c2C)C1 (stereo not drawn) [CBK154797] | 97.2 |  |
| CCC(NC(=O)C1(Cn2ccnc2)CC1)c1ncccc1C (stereo not drawn) [CBK307046] | 119 |  |
| CC1CCCCN1Cc1ccc(-c2nnn(CC(=O)NCc3ccco3)n2)cc1 (stereo not drawn) [CBK122002] | 96 |  |
| CCN1C(=O)C2(CC(=O)N(CCc3scnc3C)C2=O)c2cc(C)ccc21 (stereo not drawn) [CBK075217] | 96.8 |  |

| Structure (SMILES) | viability at 28.5 h, 10 µM [%] | viability at 28.5 h, 10 µM (bulk resorufin, single well) [%] |
| --- | --- | --- |
| CN(C(=O)Cn1cccn1)c1nc2c(s1)CC(c1ccccc1)CC2 (stereo not drawn) [CBK305173] | 102 |  |
| COCCSCc1cn2cc(Br)ccc2n1 [CBK306361] | 96.5 |  |
| CC(C(=O)N1C2CCC1CC(O)(c1ccco1)C2)c1ccccc1 (stereo not drawn) [CBK284112] | 97.8 |  |
| Fc1ccccc1-c1nc2cnccn2c1NCc1ccco1 [CBK283681] | 84.9 |  |
| CC(=O)c1cn(CCC(=O)NC2CCCOC2)c2ccccc12 (stereo not drawn) [CBK282515] | 114 |  |
| O=C(CCc1cccc(F)c1)Nc1cnc(-c2ccc(F)cc2)c(-c2ccoc2)n1 [CBK037077] | 85.3 |  |
| COc1ccc2[nH]c3c(c2c1)CCOC31CCN(C(=O)N[C@@H](C)c2ccccc2)CC1 [CBK047114] | 98.5 |  |
| CC(=O)Nc1ccccc1NC(=O)CN(C)S(=O)(=O)c1ccc(Cl)cc1 [CBK267373] | 93.2 |  |
| Cc1c(NCc2ccccn2)cccc1C(=O)O [CBK269651] | 86.9 |  |
| N#Cc1cccc(NC(=O)NC[C@H]2C[C@@H]3CC[N@]2C[C@@H]3CN2CCCCC2)c1 [CBK288765] | 99.5 |  |
| Fc1ccc(N(CCCN2CCN(c3ncccn3)CC2)c2ccc(F)cc2)cc1 [CBK025127C] | 98.8 |  |
| N#Cc1ccc(C(=O)N2C[C@@H]3C[C@H](C2)c2c(-c4cccc(C#N)c4)ccc(=O)n2C3)cc1 [CBK289196] | 104 |  |
| OC(COc1cccc2ccccc12)CN1CCN(C(c2ccccc2)c2ccccc2)CC1 (stereo not drawn) [CBK007591] | 93.1 |  |
| O=C1CC(C(=O)c2ccccc2)NC(N2CCOCC2)=N1 (stereo not drawn) [CBK267352] | 105 |  |
| N#Cc1ccc(-c2cc(NCCc3ccncc3)ncn2)cc1 [CBK037787] | 98.1 |  |
| CC(C)c1nsc(NS(=O)(=O)c2cc(C(F)(F)F)cc(C(F)(F)F)c2)n1 [CBK051263] | 84.9 |  |
| Cc1nc(CC(=O)NCc2cccnc2N2CCOCC2)cs1 [CBK304331] | 98.7 |  |
| Cc1ccn2c(C(=O)N(C)CCc3noc(C(C)C)n3)nnc2n1 [CBK306670] | 89.3 |  |
| CCN(Cc1ccc(C#N)cc1F)C(=O)NC(C)c1cnn(C)c1C (stereo not drawn) [CBK305643] | 108 |  |
| O=c1c2c3c(sc2ncn1CC(O)COc1ccc(F)cc1)CCC3 (stereo not drawn) [CBK295191] | 102 |  |
| O=C(NCc1ccco1)[C@@H]1C=CCN1C(=O)Nc1ccccc1Cl [CBK284269] | 84.3 |  |

| Structure (SMILES) | viability at 28.5 h, 10 µM [%] | viability at 28.5 h, 10 µM (bulk resorufin, single well) [%] |
| --- | --- | --- |
| CCCNC(=O)c1nn2c(c1Cl)NC(c1cccs1)CC2C(F)(F)F (stereo not drawn) [CBK307177] | 90.3 |  |
| CC(=O)Nc1cccc(-c2cncc(N[C@H](CO)C(C)C)n2)c1 [CBK065475] | 98.2 |  |
| CC(=O)c1nnnn1C(C)(C)Cc1ccccc1 [CBK022088] | 91.3 |  |
| O=C(Nc1ccc(N2CCOCC2)cc1)c1ccc(-n2cnnc2)cc1Cl [CBK269889] | 91 |  |
| O=C1c2ccccc2S(=O)(=O)N1CC(O)Cn1ccc2ccccc21 (stereo not drawn) [CBK267905] | 97.6 |  |
| CCN1C(=O)C2(CC(=O)N(Cc3ccc(OC)c(OC)c3)C2=O)c2cc(C)ccc21 (stereo not drawn) [CBK075172] | 85.4 |  |
| Sc1nnc(-c2ccncc2)n1/N=C/c1c[nH]c2ccccc12 [CBK265272] | 85.8 |  |
| Clc1cc2nc(OCCCc3ccncc3)c(N3CCCC3)nc2cc1Cl [CBK115774] | 98 |  |
| Cc1cn2c3c(=O)n(C)c(=O)n(C)c3nc2n1CCN1CCOCC1 [CBK270139] | 91.7 |  |
| CNC(=O)C1(Cc2ccccc2-c2cccs2)CCN(C(=O)CCc2ccccc2)CC1 [CBK285900] | 108 |  |
| CN1C(=O)N(C)C(=O)C(Cc2ccccn2)(Cc2ccccn2)C1=O [CBK269577] |  | 97.5 |
| Nc1ncc(-c2ccc(F)c(Cl)c2)nc1NCCCO [CBK063555] | 101 |  |
| O=C(CC1Sc2ccccc2NC1=O)Nc1ccccc1[N+](=O)[O-] (stereo not drawn) [CBK264014] | 94.8 |  |
| O=C(NC1Cc2ccccc2C1)c1cccc(-c2ccc(CC3CCCNC3=O)cc2)c1 (stereo not drawn) [CBK285579] | 94.9 |  |
| O=C(CN1CCOCC1)Nc1sc2c(c1C(=O)Nc1ccc(Cl)cc1)CCC2 [CBK265056] | 102 |  |
| CN(C)c1ncc(CNc2nc(O)c3c(n2)CCCC3)cn1 [CBK305460] | 89.3 |  |
| Cc1cccnc1C(NC(=O)C1CCN(C(=O)N2CCCC2)CC1)c1cccs1 (stereo not drawn) [CBK060124] | 106 |  |
| Nc1nonc1C(=O)NCCNCc1ccc(Cl)cc1 [CBK267194] | 101 |  |
| Cn1c(=O)c2c(ncn2Cc2ccccc2)n(C)c1=O [CBK133402] | 102 |  |
| CC(=O)Nc1ccc(S(=O)(=O)Nc2ccnc(N3CCNCC3)n2)cc1 [CBK000363C] | 92.5 |  |
| Cn1ccnc1C(NC(=O)Cc1ccc(O)cc1)c1ccccc1 (stereo not drawn) [CBK283723] | 87.9 |  |
